Assay results: patent US4832875A, “Vitamin D3 derivative” (Taisho Pharmaceutical Co., Ltd., priority 1985, dated 1989)
pIC50: −log10 of the molar value.

Legend:
[1] = test system: calcium level in serum in vitamin D-deficient rats; experiment: activity of increasing calcium level in serum in vitamin D-deficient rats (oral); type: in vivo, Wistar rats (male); conditions: for Percent increase in serum Ca level (control 100%) / Calcium in the serum: po, once a day over 3 days; for Calcium in the serum: control (ethanol) 8.60
Source text: To confirm it in an in vivo (animal) test, however, its action of increasing the blood calcium level in vitamin D-deficient rats was examined.
Wistar rats (male, three weeks old) purchased from Japan Charles River Co. were fed 3 to 4 weeks with a vitamin D-deficient diet containing calcium (0.02%) and phosphorus (0.99%) to prepare vitamin D-deficient rats. The compound of this invention or 1,25-dihydroxy-26,27-dimethylvitamin D3 was orally administered to these animals once a day over 3 days. On the fourth day, blood was drawn from the animals, and calcium in the serum was measured by atomic absorptiometry.
As soon as the administration began, the feed was changed to one which was vitamin D-deficient but contained calcium in a normal amount (0.56%).

[2] = test system: calcium level in the serum; conditions: as shown in Japanese Laid-Open Patent Publication No. 44860/1986; cited from earlier work
[3] = test system: calcium level in the serum in vitamin D-deficient low-calcium rats; experiment: effect of inhibiting dissolution of calcium from bones: calcium level in serum in vitamin D-deficient low-calcium rats (intravenous); type: in vivo, Wistar rats (male); conditions: 500 P moles/100 g body weight, one intravenous administration, next day
Source text: Vitamin D has both an action of calcium deposition on bones and an action of liberating calcium from the bones, and promotes bone formation when the balance between these actions is shifted toward the former. Accordingly, a vitamin D derivative which inhibits dissolution of calcium from bones can be expected to have a very strong bone-forming action. In the present test, calcium in the feed was limited to a low level, and under conditions in which no calcium absorption from the intestinal tract occurred, the activity to increase the calcium level in the serum was examined. This activity is considered to reflect calcium dissolution from the bones.
The following test was conducted in accordance with the method of C. Kaneko et al. [C. Kaneko, S. Yamada, A. Sugimoto, M. Katuta, and S. Sasaki: Steroids, 23, 75 (1974)].
Three week old Wistar rats (male) were purchased from Japan Charles River Co., and were fed for 19 days with a feed being deficient in vitamin D and containing low calcium (0.02%) to prepare vitamin D-deficient hypocalcemia rats. An ethanol solution of an assay compound was intravenously administered once to the rats. On the next day, blood was drawn from the animals, and the calcium level in the serum was measured by atomic absorptiometry (using a double beam atomic absorption photometer made by Shimazu Seisakusho; Model AA-650).

[4] = molecular target: T1, 1,25-dihydroxyvitamin D3 receptor in the intestines of chicken embryo (Gallus gallus, UniProt O42392); experiment: receptor binding ability (in vitro), 1,25-dihydroxyvitamin D3 receptor, charcoal method
T1 sequence (O42392 1-451): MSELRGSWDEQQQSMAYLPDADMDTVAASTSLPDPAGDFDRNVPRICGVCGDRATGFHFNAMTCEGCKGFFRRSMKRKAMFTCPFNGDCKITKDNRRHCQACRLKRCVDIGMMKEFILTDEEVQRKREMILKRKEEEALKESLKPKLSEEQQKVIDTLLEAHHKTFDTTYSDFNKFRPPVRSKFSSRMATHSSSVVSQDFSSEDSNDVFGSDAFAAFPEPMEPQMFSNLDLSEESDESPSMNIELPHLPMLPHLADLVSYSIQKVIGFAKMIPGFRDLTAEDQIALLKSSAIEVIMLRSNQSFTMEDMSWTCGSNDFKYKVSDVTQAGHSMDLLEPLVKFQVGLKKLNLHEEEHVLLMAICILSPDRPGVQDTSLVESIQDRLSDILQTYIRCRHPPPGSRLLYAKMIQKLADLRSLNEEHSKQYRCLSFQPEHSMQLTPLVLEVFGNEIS
Description: The mixture was incubated at 0° C. for 3 hours.
The free assay compound and the assay compound bound to the receptor were separated by the charcoal method.

| Compound | Percent increase in serum Ca level (control 100%) ([1]; 600 P moles/rat) [%] | Calcium in the serum ([1]; 600 P moles/rat) [mg/dL] | Percent increase in serum Ca level (control 100%) ([1]; 1,200 P moles/rat) [%] | Calcium in the serum ([1]; 1,200 P moles/rat) [mg/dL] | action of increasing the calcium level in the serum compared with 1α-hydroxyvitamin D3 or 1,25-dihydroxyvitamin D3 (in words) [2] | activity to increase the calcium level in the serum compared with 1,25-dihydroxyvitamin D3 (in words) ([1]; inferred via 1,25-dihydroxy-26,27-dimethylvitamin D3 comparator) | action of increasing the calcium level in the serum (in words) ([1]; vitamin D-deficient rats, oral) | Percent increase in serum Ca level (control 100%) ([3]; control 100%) [%] | Calcium in the serum ([3]; control (ethanol) 4.47, * significant at P <0.05 vs control) [mg/dL] | pIC50 [4] |
| --- | --- | --- | --- | --- | --- | --- | --- | --- | --- | --- |
| C=C1/C(=C\C=C2/CCC[C@]3(C)[C@@H]([C@H](C)CCCC(O)(CC)CC)CC[C@@H]23)C[C@@H](O)C[C@@H]1O [1,25-Dihydroxy-26,27-dimethyl-vitamin D3, 1,25-dihydroxy-26,27-dimethylvitamin D3, reference compound] | 105 | 9.00 | 112 | 9.60 | stronger action of increasing the calcium level in the serum than 1α-hydroxyvitamin D3 or 1,25-dihydroxyvitamin D3 | – | – | – | – | – |
| C=C1/C(=C\C=C2/CCC[C@]3(C)[C@@H]([C@H](C)CCCC(F)(F)C(C)(C)O)CC[C@@H]23)C[C@@H](O)C[C@@H]1O [Compound of the invention, 1α,25-dihydroxy-24a,24a-difluoro-24-homovitamin D3] | 114 | 9.80 | 119 | 10.20 | – | stronger than that of 1,25-dihydroxyvitamin D3 | shows an action of increasing the calcium level in the serum | 94.2 | 4.21 | 7.30 |
